Results taken from patent US7541463B2, “Sulfur-containing naphthalimide derivatives” (East China University of Science and Technology, priority 2003, dated 2009).
“Also recorded” adds a separate entry of the source.

Experiments:
[1] = tested on: human lung adenocarcinoma cell A-549; assay: Growth inhibition of A-549 cells, SRB protein staining assay; type: cell-based; details: read-out: Growth inhibition effect to A-549 cell strain; for inhibition at 100 µM: A549, 10^−4 M; for inhibition at 10 µM: A549, 10^−5 M; for inhibition at 1 µM: A549, 10^−6 M; for inhibition at 0.1 µM: A549, 10^−7 M; for inhibition at 0.01 µM: A549, 10^−8 M
Method: (§1) The cell growth inhibition of mice leukemia cell P388 was evaluated by MTT (microculture tetrozolium) assay, while the cell growth inhibition of human lung adenocarcinoma cell A-549 was evaluated by SRB (Sulforhodamine B) protein staining assay.
(§2) The procedure of SRB assay was as follows: appropriate amount of cells in log phase were seeded in 96-well plates according to the growing rate (90 ul/well). After cultured for 24 h, cells were exposed to serial dilutions of drugs in triplicate (10 ul/well). In addition, control wells of normal saline in corresponding concentrations and zeroing wells without cell were set. The cells were incubated in 5% CO2 humidified incubator at 37° C. After 72 h, the medium was removed and cells were fixed with cold 10% trichloric acid (TCA) at 4° C. for 1 h. The plates were washed with distilled water 5 times, and stained in room temperature with 4 mg/ml SRB (Sigma, diluted with 1% glacial acetic acid, 100 ul/well) for 15 minutes after air drying. SRB was then washed with 1% acetic acid 5 times. Plates were dried, followed by adding 150 ul/well Tris solution. Absorbance was measured at […] using a multiwell spectrophotometer. The inhibition effect of the compounds in test (percentage of growth inhibition) was calculated for each well: % inhibition=(A540control cells−A540treated cells)/A540control cells×100%.
(§3) The cell lines used were mice leukemia cell P388, human leukemia cell MOLT-4, human lung adenocarcinoma cell A-549, human gastric adenocarcinoma SGC-7901, human hepatocellular carcinoma BEL-7402 and human embryonal fibroblast WI-38 (commerially available from ATCC).
(§4) The exposure time to compounds was 48 h-72 h.

mice leukemia cell P388 = assay: Growth inhibition of P388 cells, MTT assay; type: cell-based; details: Mus musculus, read-out: Growth inhibition effect to P388 cell strain; for inhibition at 100 µM: 10^−4 M; for inhibition at 10 µM: 10^−5 M; for inhibition at 1 µM: 10^−6 M; for inhibition at 0.1 µM: 10^−7 M; for inhibition at 0.01 µM: 10^−8 M
Method: as §1
(§5) The procedure of MTT assay was as follows: appropriate amount of cells in log phase were seeded in 96-well plates (6000 cells/well, 15000 cells/well, 90ul/well) according to the growing rate. After cultured for 24 h, cells were exposed to serial dilutions of drugs in triplicate (10 ul/well). In addition, wells without cell, and wells without cell but with serial dilutions of drugs in case of using a colored-drug were set for zeroing. Then, the cells were cultured in 5% CO2 humidified incubator at 37° C. for 48 h. After treatment of drugs for 48 h, 20ul MTT (Sigma) which was diluted by normal saline to the concentration of 5 mg/ml was added to each well, 50ul/well 10%SDS-5% isobutanol-0.01% mol/LHCl was added after 4 h. After cultured overnight, absorbance was measured at 570 nm using a multiwell spectrophotometer. The inhibition effect of the compounds in test (percentage of growth inhibition) was calculated for each well: % inhibition=(OD570control cells−OD570treated cells)/OD570control cells×100%.
as §3, §4

S-180 sarcoma [2] = assay: In vivo tumor growth inhibition, S-180 sarcoma in mice; details: i.p. injection
Method: S-180 sarcoma developed for 7-11 days and in good growth trend was homogenated into cell suspension. The cell suspension was inoculated subcutaneously into right armpit of female KM mice (18˜22 g) (about 1.0−2.5×10^6 cells/mouse). After 24 h, the mice were grouped in random with compounds administrated by i.p. injection. From the next day on, the mice were given serial dosages. After treatment, animals were killed, and solid tumors were removed and weighed after the body weight were weighed. The inhibition rate was calculated as follows, and T-test was carried out: [(Average tumor weight of NS group−Average tumor weight of test group)/Average tumor weight of NS group]×100%.

[3] = tested on: human leukemia cell MOLT-4; assay: Growth inhibition of MOLT-4 cells (MTT or SRB assay); type: cell-based; details: read-out: Growth inhibition effect to MOLT-4 cell strain; for inhibition at 100 µM: 10^−4 M; for inhibition at 10 µM: 10^−5 M; for inhibition at 1 µM: 10^−6 M; for inhibition at 0.1 µM: 10^−7 M; for inhibition at 0.01 µM: 10^−8 M
Method: as §5, §2
(§6) The methods used were MTT assay or SRB assay.
as §3, §4

[4] = tested on: human gastric adenocarcinoma SGC-7901; assay: Growth inhibition of SGC-7901 cells (MTT or SRB assay); type: cell-based; details: read-out: Growth inhibition effect to SGC-7901 cell strain; for inhibition at 100 µM: 10^−4 M; for inhibition at 10 µM: 10^−5 M; for inhibition at 1 µM: 10^−6 M; for inhibition at 0.1 µM: 10^−7 M; for inhibition at 0.01 µM: 10^−8 M
Method: as §5, §2, §6, §3, §4

[5] = tested on: human hepatocellular carcinoma BEL-7402; assay: Growth inhibition of BEL-7402 cells (MTT or SRB assay); type: cell-based; details: read-out: Growth inhibition effect to BEL-7402 cell strain; for inhibition at 100 µM: 10^−4 M; for inhibition at 10 µM: 10^−5 M; for inhibition at 1 µM: 10^−6 M; for inhibition at 0.1 µM: 10^−7 M; for inhibition at 0.01 µM: 10^−8 M
Method: as §5, §2, §6, §3, §4

[6] = Body weight and deaths of S-180 bearing mice; type: in vivo; details: 75 mg/kg i.v, injected twice (Day 1 and Day 4)
S-180 sarcoma [7] = assay: In vivo tumor growth inhibition, S-180 sarcoma in mice; details: 75 mg/kg i.v, injected twice (Day 1 and Day 4)

Row | Compound | melting point [°C] | inhibition at 100 µM [1] [%] | inhibition at 10 µM [1] [%] | inhibition at 1 µM [1] [%] | inhibition at 0.1 µM [1] [%] | inhibition at 0.01 µM [1] [%] | inhibition at 100 µM (mice leukemia cell P388) [%] | inhibition at 10 µM (mice leukemia cell P388) [%] | inhibition at 1 µM (mice leukemia cell P388) [%] | inhibition at 0.1 µM (mice leukemia cell P388) [%] | inhibition at 0.01 µM (mice leukemia cell P388) [%] | inhibition at 100 µM [3] [%] | inhibition at 10 µM [3] [%] | inhibition at 1 µM [3] [%] | inhibition at 0.1 µM [3] [%] | inhibition at 0.01 µM [3] [%] | inhibition at 100 µM [4] [%] | inhibition at 10 µM [4] [%] | inhibition at 1 µM [4] [%] | inhibition at 0.1 µM [4] [%] | further results
1 | CCCCn1c(=O)c2ccc3sc4ccccc4c4ccc(c1=O)c2c34 [compound 1, N-butyl benzo[k, l]thioxanthene-3,4-dicarboximide] | 185 to 186 | 34.4 | 0 | 0 | 0 | 0 | 51.7 | 10.2 | 6.4 | 2.2 | 4.3 | 100 | 98.5 | 97.7 | 77.4 | 1.1 | 87.5 | 56.2 | 46 | 21.4 | inhibition at 0.01 µM [4]: 9.8%; inhibition at 100 µM [5]: 70.1%; inhibition at 10 µM [5]: 76.9%; inhibition at 1 µM [5]: 67%; inhibition at 0.1 µM [5]: 3.7%; inhibition at 0.01 µM [5]: 6.6%
2 | O=c1[nH]cc(F)c(=O)[nH]1 [5-FU] | – | – | – | – | – | – | – | – | – | – | – | – | – | – | – | – | – | – | – | – | Weight of mice (g) Day 7 [6]: 20.7 g; Tumor growth inhibition % (S-180 sarcoma [7]): 96.9%; Weight of tumor (g) mean ± SD (S-180 sarcoma [7]): 0.05 ± 0.04 g
3 | CN(C)CCCn1c(=O)c2ccc3sc4ccccc4c4ccc(c1=O)c2c34 [compound 4, N-(N′, N′-dimethylaminopropyl)benzo[k, l]thioxanthene-3,4-dicarboximide] | 202 to 203 | 80.3 | 92.9 | 73.5 | 33.4 | 17.3 | 100 | 100 | 23.1 | 11 | 16.2 | 100 | 99.7 | 93.9 | 22.3 | 0 | 94.5 | 91.8 | 39.1 | 0.2 | inhibition at 0.01 µM [4]: 13.8%; inhibition at 100 µM [5]: 94.6%; inhibition at 10 µM [5]: 95%; inhibition at 1 µM [5]: 50.7%; inhibition at 0.1 µM [5]: 24.3%; inhibition at 0.01 µM [5]: 17.9%

Further lines, with some results ahead:

Row | melting point [°C] | Compound | inhibition at 100 µM [1] [%] | inhibition at 10 µM [1] [%] | inhibition at 1 µM [1] [%] | inhibition at 0.1 µM [1] [%] | inhibition at 0.01 µM [1] [%] | inhibition at 100 µM (mice leukemia cell P388) [%] | inhibition at 10 µM (mice leukemia cell P388) [%] | inhibition at 1 µM (mice leukemia cell P388) [%] | inhibition at 0.1 µM (mice leukemia cell P388) [%] | inhibition at 0.01 µM (mice leukemia cell P388) [%] | inhibition at 100 µM [3] [%] | inhibition at 10 µM [3] [%] | inhibition at 1 µM [3] [%] | inhibition at 0.1 µM [3] [%] | inhibition at 0.01 µM [3] [%] | inhibition at 100 µM [4] [%] | inhibition at 10 µM [4] [%] | inhibition at 1 µM [4] [%] | inhibition at 0.1 µM [4] [%] | further results
4 | 216 to 217 | COc1ccc(-c2nc3cc4c5c(cccc5c3s2)C(=O)N(CCN(C)C)C4=O)cc1 [compound 9, N-(N′,N′-dimethylaminoethyl)-4H, 6H-9-p-methoxy phenyl-benzo[de]thiazol[5,4-g]isoquinoline-4,6-diketone] | 94.9 | 93.9 | 94.5 | 69.4 | 44.5 | 95.1 | 92.3 | 78.2 | 15.2 | 21 | – | – | – | – | – | – | – | – | – | activity against mice S180 sarcoma (in words) (S-180 sarcoma [2]; listed as C9): not potent; also recorded: active against S180 sarcoma, but weaker than C16
5 | 212 to 213 | CN(C)CCn1c(=O)c2ccc3sc4ccccc4c4ccc(c1=O)c2c34 [compound 2, N-(N′,N′-dimethylaminoethyl)benzo[k, l]thioxanthene-3,4-dicarboximide] | 91.3 | 90.2 | 75.1 | 50.2 | 16.9 | 99.9 | 78.9 | 22.2 | 7.7 | 10.1 | 100 | 100 | 97.7 | 42.3 | 0 | 96.2 | 88 | 37.8 | 28.5 | inhibition at 0.01 µM [4]: 0.8%; inhibition at 100 µM [5]: 95.1%; inhibition at 10 µM [5]: 90.7%; inhibition at 1 µM [5]: 72.9%; inhibition at 0.1 µM [5]: 24.9%; inhibition at 0.01 µM [5]: 14.2%
6 | 178 to 179 | CN(C)CCN1C(=O)c2cccc3c2c(cc2nnsc23)C1=O [compound 11, 5-(N′,N′-dimethylaminoethyl)-4H, 6H-benzo[de]-1,2,3,-thiadiazol[5,4-g]isoquinoline-4,6-diketone] | 95.7 | 93.7 | 94.5 | 76.6 | 20.2 | 98.7 | 92.7 | 42.2 | 13.8 | 10.7 | 100 | 100 | 100 | 82.8 | 0 | 96.5 | 97.1 | 38.9 | 16.7 | inhibition at 0.01 µM [4]: 1.1%; inhibition at 100 µM [5]: 95.7%; inhibition at 10 µM [5]: 90.9%; inhibition at 1 µM [5]: 74%; inhibition at 0.1 µM [5]: 20.1%; inhibition at 0.01 µM [5]: 24.4%
7 | 229 to 230 | CN(C)CCN1C(=O)c2cccc3c2c(cc2nc(-c4cccc([N+](=O)[O-])c4)sc23)C1=O [compound 7, N-(N′,N′-dimethylaminoethyl)-4H, 6H-9-m-nitrophenyl-benzo[de]thiazol[5,4-g]isoquinoline4,6-diketone] | 89.1 | 89 | 72.3 | 71.3 | 52 | 98.7 | 74.6 | 47.9 | 15.8 | 18 | 95.1 | 99.2 | 100 | 13.3 | 0 | 96.4 | 95.1 | 67 | 6.9 | inhibition at 0.01 µM [4]: 3.4%; inhibition at 100 µM [5]: 96.9%; inhibition at 10 µM [5]: 95.8%; inhibition at 1 µM [5]: 80.6%; inhibition at 0.1 µM [5]: 33.1%; inhibition at 0.01 µM [5]: 17%; activity against mice S180 sarcoma (in words) (S-180 sarcoma [2]; listed as C7): not potent; also recorded: active against S180 sarcoma, but weaker than C16
